Entries after “also recorded” stand apart in the source; their conditions may differ.
Target: Stx2 toxoid (Escherichia phage 933W, UniProt P09386)
Type: binding, Escherichia coli O157:H7

Chain of Stx2 toxoid (P09386 whole entry, looked up): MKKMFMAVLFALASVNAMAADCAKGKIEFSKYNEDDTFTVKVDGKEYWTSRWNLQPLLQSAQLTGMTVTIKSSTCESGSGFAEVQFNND

Molecule | Stx2 binding | other results
CC(C)CCC[C@@H](C)[C@H]1CC[C@H]2[C@@H]3CC[C@H]4CCCC[C@]4(C)[C@H]3CC[C@]12C [5αCh, 5-α-Cholestane] |  | Stx2 binding to Gb3 in the presence of sterol and PC: failed to support binding
CCCCCCCCCCCCC/C=C/[C@@H](O)[C@@H](N)CO[C@@H]1O[C@H](CO)[C@@H](O[C@@H]2O[C@H](CO)[C@H](O[C@H]3O[C@H](CO)[C@H](O)[C@H](O)[C@H]3O)[C@H](O)[C@H]2O)[C@H](O)[C@H]1O [Lyso-Gb3, Lyso-globotriaosylsphingosine] | did not bind | 
CC(C)CCC[C@@H](C)[C@H]1CC[C@H]2[C@@H]3CC=C4C[C@@H](O)CC[C@]4(C)[C@H]3CC[C@]12C [cholesterol] |  | change of Stx2 binding to Gb3 in the absence of cholesterol: statistically significant decrease; change of Stx2 binding to Gb3 in the presence of cholesterol alone: statistically significant increase
Asialo GM1 gangliosides [aGM1] | failed to support binding | 
Asialo GM2 gangliosides [aGM2] | failed to support binding | 
Galactosyl ceramide [Gal-Cer] | failed to support binding | 
Globotetraosyl ceramide [Gb4] | increased binding | Kd (read-out: apparent Kd of Stx2): 14 nM
Globotriaosyl ceramide, Ceramide trihexoside [Gb3] | poor binding; also recorded: increased binding | concentration of Stx2 needed to reach saturated binding: above 1 µM
Glucosyl ceramide [Glc-Cer] | failed to support binding | 
Lactosyl ceramide [Lac-Cer] | failed to support binding | 
